Experimental data from PubChem BioAssay AID2060910 (Molecular Pharmacology Branch, DTP, NCI, 2025).
One block for each molecule: values may come before it.

Tested on: 242566-281-R-J2-PDC complex spheroid viability
Assay: Anticancer human tumor 242566-281-R-J2-PDC patient-derived pancreatic carcinoma cell line growth inhibition [RAS]
Details: for IC50: curve of first compound; for viability, T/C: stronger effect = lower value
Summary of the method: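 Multi-cell-type spheroids: tumor cells plus HUVEC endothelial cells and mesenchymal stem cells. RAS-pathway inhibitors were combined with targeted agents, each dosed in half-log steps down from clinical Cmax, or from 10 microM when Cmax was unknown.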

[1] = second compound 0.0316 µM, first compound 0.00316 µM
[2] = second compound 0.0316 µM, first compound 0.01 µM
[3] = second compound 0.0316 µM, first compound 0.0316 µM
[4] = second compound 0.0316 µM, first compound 0.1 µM
[5] = second compound 0.0316 µM, first compound 0.316 µM
[6] = second compound 0.0316 µM, first compound 1 µM
[7] = second compound 0.1 µM, first compound 0.00316 µM
[8] = second compound 0.1 µM, first compound 0.01 µM
[9] = second compound 0.1 µM, first compound 0.0316 µM
[10] = second compound 0.1 µM, first compound 0.1 µM
[11] = second compound 0.1 µM, first compound 0.316 µM
[12] = second compound 0.1 µM, first compound 1 µM
[13] = second compound 0.316 µM, first compound 0.00316 µM
[14] = second compound 0.316 µM, first compound 0.01 µM
[15] = second compound 0.316 µM, first compound 0.0316 µM
[16] = second compound 0.316 µM, first compound 0.1 µM
[17] = second compound 0.316 µM, first compound 0.316 µM
[18] = second compound 0.316 µM, first compound 1 µM
[19] = second compound 1 µM, first compound 0.00316 µM
[20] = second compound 1 µM, first compound 0.01 µM
[21] = second compound 1 µM, first compound 0.0316 µM
[22] = second compound 1 µM, first compound 0.1 µM
[23] = second compound 1 µM, first compound 0.316 µM
[24] = second compound 1 µM, first compound 1 µM
[25] = second compound 3.16 µM, first compound 0.00316 µM
[26] = second compound 3.16 µM, first compound 0.01 µM
[27] = second compound 3.16 µM, first compound 0.0316 µM
[28] = second compound 3.16 µM, first compound 0.1 µM
[29] = second compound 3.16 µM, first compound 0.316 µM
[30] = second compound 3.16 µM, first compound 1 µM
[31] = second compound 10 µM, first compound 0.00316 µM
[32] = second compound 10 µM, first compound 0.01 µM
[33] = second compound 10 µM, first compound 0.0316 µM
[34] = second compound 10 µM, first compound 0.1 µM
[35] = second compound 10 µM, first compound 0.316 µM
[36] = second compound 10 µM, first compound 1 µM
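Also: spheroids exposed to compound for 7 days before readout.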
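For viability, T/C in this document: 100% = DMSO vehicle control wells.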

- IC50 (second compound 0.0316 µM): > 1 µM
- IC50 (second compound 0.1 µM): > 1 µM
- IC50 (second compound 0.316 µM): > 1 µM
- IC50 (second compound 1 µM): > 1 µM
- IC50 (second compound 3.16 µM): 0.0299 µM
- IC50 (second compound 10 µM): > 1 µM
SMILES: C=CC(=O)N1CCN(c2nc(OCC3CCCN3C)nc3c(F)c(-c4nc(N)cc(C)c4C(F)(F)F)c(Cl)cc23)C(C)C1 (stereo not drawn) + C#Cc1c(F)ccc2cc(O)cc(-c3ncc4c(N5CC6CCC(C5)N6)nc(OCC56CCCN5CC(F)C6)nc4c3F)c12
- viability, T/C [1]: 95.7%
- viability, T/C [2]: 113%
- viability, T/C [3]: 95.9%
- viability, T/C [4]: 66.7%
- viability, T/C [5]: 71.1%
- viability, T/C [6]: 91.7%
- viability, T/C [7]: 83.9%
- viability, T/C [8]: 90.8%
- viability, T/C [9]: 79.9%
- viability, T/C [10]: 57.2%
- viability, T/C [11]: 75.3%
- viability, T/C [12]: 76.5%
- viability, T/C [13]: 80%
- viability, T/C [14]: 74.6%
- viability, T/C [15]: 60.1%
- viability, T/C [16]: 62.3%
- viability, T/C [17]: 56.5%
- viability, T/C [18]: 63.3%
- viability, T/C [19]: 60.6%
- viability, T/C [20]: 61.9%
- viability, T/C [21]: 48.4%
- viability, T/C [22]: 50.7%
- viability, T/C [23]: 56.1%
- viability, T/C [24]: 61%
- viability, T/C [25]: 56.4%
- viability, T/C [26]: 56.8%
- viability, T/C [27]: 40.5%
- viability, T/C [28]: 51.1%
- viability, T/C [29]: 52.5%
- viability, T/C [30]: 54.5%
- viability, T/C [31]: 51.2%
- viability, T/C [32]: 53.2%
- viability, T/C [33]: 46.8%
- viability, T/C [34]: 48.6%
- viability, T/C [35]: 57.3%
- viability, T/C [36]: 53.4%

- IC50 (second compound 0.0316 µM): > 10 µM
- IC50 (second compound 0.1 µM): < 0.0316 µM
- IC50 (second compound 0.316 µM): < 0.0316 µM
- IC50 (second compound 1 µM): < 0.0316 µM
- IC50 (second compound 3.16 µM): < 0.0316 µM
- IC50 (second compound 10 µM): < 0.0316 µM
SMILES: CC(=O)OC12COC1CC(O)C1(C)C(=O)C(O)C3=C(C)C(OC(=O)C(O)C(NC(=O)OC(C)(C)C)c4ccccc4)CC(O)(C(OC(=O)c4ccccc4)C21)C3(C)C (stereo not drawn) + C#Cc1c(F)ccc2cc(O)cc(-c3ncc4c(N5CC6CCC(C5)N6)nc(OCC56CCCN5CC(F)C6)nc4c3F)c12
- viability, T/C [3]: 62.9%
- viability, T/C [4]: 54.2%
- viability, T/C [5]: 55%
- viability, T/C [6]: 37.4%
- viability, T/C (second compound 0.0316 µM, first compound 3.16 µM): 55.3%
- viability, T/C (second compound 0.0316 µM, first compound 10 µM): 71.7%
- viability, T/C [9]: 54.4%
- viability, T/C [10]: 52.1%
- viability, T/C [11]: 42.2%
- viability, T/C [12]: 40.9%
- viability, T/C (second compound 0.1 µM, first compound 3.16 µM): 52.8%
- viability, T/C (second compound 0.1 µM, first compound 10 µM): 56.9%
- viability, T/C [15]: 45.7%
- viability, T/C [16]: 43.1%
- viability, T/C [17]: 30.8%
- viability, T/C [18]: 40.6%
- viability, T/C (second compound 0.316 µM, first compound 3.16 µM): 39.9%
- viability, T/C (second compound 0.316 µM, first compound 10 µM): 43.6%
- viability, T/C [21]: 37.8%
- viability, T/C [22]: 36.4%
- viability, T/C [23]: 36.5%
- viability, T/C [24]: 32.3%
- viability, T/C (second compound 1 µM, first compound 3.16 µM): 34.2%
- viability, T/C (second compound 1 µM, first compound 10 µM): 29%
- viability, T/C [27]: 37.1%
- viability, T/C [28]: 26.4%
- viability, T/C [29]: 23.6%
- viability, T/C [30]: 30.3%
- viability, T/C (second compound 3.16 µM, first compound 3.16 µM): 30.7%
- viability, T/C (second compound 3.16 µM, first compound 10 µM): 23.2%
- viability, T/C [33]: 30.2%
- viability, T/C [34]: 26.5%
- viability, T/C [35]: 23.4%
- viability, T/C [36]: 25.6%
- viability, T/C (second compound 10 µM, first compound 3.16 µM): 28.6%
- viability, T/C (second compound 10 µM, first compound 10 µM): 28.2%

- IC50 (second compound 0.0316 µM): 0.0316 µM
- IC50 (second compound 0.1 µM): 0.0241 µM
- IC50 (second compound 0.316 µM): 0.0151 µM
- IC50 (second compound 1 µM): 0.00664 µM
- IC50 (second compound 3.16 µM): 0.0033 µM
- IC50 (second compound 10 µM): 0.00346 µM
SMILES: CCc1c2c(nc3ccc(O)cc13)-c1cc3c(c(=O)n1C2)COC(=O)[C@]3(O)CC + C#Cc1c(F)ccc2cc(O)cc(-c3ncc4c(N5CC6CCC(C5)N6)nc(OCC56CCCN5CC(F)C6)nc4c3F)c12
- viability, T/C (second compound 0.0316 µM, first compound 0.000949 µM): 100%
- viability, T/C (second compound 0.0316 µM, first compound 0.003 µM): 97.3%
- viability, T/C (second compound 0.0316 µM, first compound 0.00949 µM): 76.1%
- viability, T/C (second compound 0.0316 µM, first compound 0.03 µM): 51.3%
- viability, T/C (second compound 0.0316 µM, first compound 0.0949 µM): 29.3%
- viability, T/C (second compound 0.0316 µM, first compound 0.3 µM): 17.7%
- viability, T/C (second compound 0.1 µM, first compound 0.000949 µM): 74.1%
- viability, T/C (second compound 0.1 µM, first compound 0.003 µM): 86.4%
- viability, T/C (second compound 0.1 µM, first compound 0.00949 µM): 70.2%
- viability, T/C (second compound 0.1 µM, first compound 0.03 µM): 44.9%
- viability, T/C (second compound 0.1 µM, first compound 0.0949 µM): 39.4%
- viability, T/C (second compound 0.1 µM, first compound 0.3 µM): 31.7%
- viability, T/C (second compound 0.316 µM, first compound 0.000949 µM): 72.8%
- viability, T/C (second compound 0.316 µM, first compound 0.003 µM): 74.9%
- viability, T/C (second compound 0.316 µM, first compound 0.00949 µM): 53%
- viability, T/C (second compound 0.316 µM, first compound 0.03 µM): 45%
- viability, T/C (second compound 0.316 µM, first compound 0.0949 µM): 35.4%
- viability, T/C (second compound 0.316 µM, first compound 0.3 µM): 36%
- viability, T/C (second compound 1 µM, first compound 0.000949 µM): 59.3%
- viability, T/C (second compound 1 µM, first compound 0.003 µM): 66%
- viability, T/C (second compound 1 µM, first compound 0.00949 µM): 44.3%
- viability, T/C (second compound 1 µM, first compound 0.03 µM): 36%
- viability, T/C (second compound 1 µM, first compound 0.0949 µM): 29.5%
- viability, T/C (second compound 1 µM, first compound 0.3 µM): 30.8%
- viability, T/C (second compound 3.16 µM, first compound 0.000949 µM): 56.3%
- viability, T/C (second compound 3.16 µM, first compound 0.003 µM): 50.6%
- viability, T/C (second compound 3.16 µM, first compound 0.00949 µM): 40.8%
- viability, T/C (second compound 3.16 µM, first compound 0.03 µM): 32.7%
- viability, T/C (second compound 3.16 µM, first compound 0.0949 µM): 31.5%
- viability, T/C (second compound 3.16 µM, first compound 0.3 µM): 30.4%
- viability, T/C (second compound 10 µM, first compound 0.000949 µM): 58.6%
- viability, T/C (second compound 10 µM, first compound 0.003 µM): 52.5%
- viability, T/C (second compound 10 µM, first compound 0.00949 µM): 38.3%
- viability, T/C (second compound 10 µM, first compound 0.03 µM): 41%
- viability, T/C (second compound 10 µM, first compound 0.0949 µM): 29.2%
- viability, T/C (second compound 10 µM, first compound 0.3 µM): 22.8%

- IC50 (second compound 0.0316 µM): 0.086 µM
- IC50 (second compound 0.1 µM): 0.201 µM
- IC50 (second compound 0.316 µM): 0.18 µM
- IC50 (second compound 1 µM): 0.0102 µM
- IC50 (second compound 3.16 µM): 0.00316 µM
- IC50 (second compound 10 µM): < 0.00316 µM
SMILES: Nc1ccn(C2OC(CO)C(O)C2(F)F)c(=O)n1 (stereo not drawn) + C#Cc1c(F)ccc2cc(O)cc(-c3ncc4c(N5CC6CCC(C5)N6)nc(OCC56CCCN5CC(F)C6)nc4c3F)c12
- viability, T/C [1]: 84.9%
- viability, T/C [2]: 105%
- viability, T/C [3]: 71.6%
- viability, T/C [4]: 48.5%
- viability, T/C [5]: 41.8%
- viability, T/C [6]: 30.9%
- viability, T/C [7]: 75.7%
- viability, T/C [8]: 88.7%
- viability, T/C [9]: 70.6%
- viability, T/C [10]: 54.7%
- viability, T/C [11]: 51.6%
- viability, T/C [12]: 39.8%
- viability, T/C [13]: 64%
- viability, T/C [14]: 71.1%
- viability, T/C [15]: 49.4%
- viability, T/C [16]: 52.1%
- viability, T/C [17]: 49.8%
- viability, T/C [18]: 44%
- viability, T/C [19]: 56.2%
- viability, T/C [20]: 55.5%
- viability, T/C [21]: 40.8%
- viability, T/C [22]: 41.4%
- viability, T/C [23]: 45.7%
- viability, T/C [24]: 41.9%
- viability, T/C [25]: 38.6%
- viability, T/C [26]: 55.4%
- viability, T/C [27]: 50.8%
- viability, T/C [28]: 36.5%
- viability, T/C [29]: 39%
- viability, T/C [30]: 36.2%
- viability, T/C [31]: 42.3%
- viability, T/C [32]: 53.9%
- viability, T/C [33]: 48.9%
- viability, T/C [34]: 38.3%
- viability, T/C [35]: 34.1%
- viability, T/C [36]: 30.7%
